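Assay format: 96-well plates, 48-hour exposure. TGI denotes the concentration required for complete inhibition of growth.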
Legend:
Test in all cases: NCI anticancer screen, dose series, 48 h
[1] = tested on: HCC-2998 colon
[2] = tested on: OVCAR-5 ovarian
[3] = tested on: RXF 393 renal
[4] = tested on: CAKI-1 renal
[5] = tested on: HL-60(TB) leukemia
[6] = tested on: K-562 leukemia
[7] = tested on: OVCAR-8 ovarian
[8] = tested on: EKVX NSCLC
[9] = tested on: M14 melanoma
[10] = tested on: OVCAR-4 ovarian
[11] = tested on: A549 NSCLC
[12] = tested on: M19-MEL melanoma
[13] = tested on: IGROV1 ovarian
[14] = tested on: SNB-75 CNS
[15] = tested on: SW-620 colon
[16] = tested on: ACHN renal
[17] = tested on: NCI-H226 lung
[18] = tested on: TK-10 renal
[19] = tested on: 786-0 renal
[20] = tested on: U251 CNS
[21] = tested on: UO-31 renal
[22] = tested on: DMS 273 small cell lung
[23] = tested on: SN12C renal
[24] = tested on: RPMI-8226 leukemia
[25] = tested on: SK-MEL-28 melanoma
[26] = tested on: DLD-1 colon
[27] = tested on: SK-MEL-2 melanoma
[28] = tested on: HT29 colon
[29] = tested on: HOP-18 NSCLC
[30] = tested on: A498 renal
[31] = tested on: NCI-H23 lung
[32] = tested on: SF-539 CNS
[33] = tested on: COLO 205 colon
[34] = tested on: RXF-631 renal
[35] = tested on: SF-295 CNS
[36] = tested on: SK-OV-3 ovarian
[37] = tested on: UACC-62 melanoma
[38] = tested on: SNB-78 CNS
[39] = tested on: CCRF-CEM leukemia
[40] = tested on: NCI-H522 lung
[41] = tested on: UACC-257 melanoma
[42] = tested on: KM12 colon
[43] = tested on: HCT-15 colon
[44] = tested on: MALME-3M melanoma
[45] = tested on: SF-268 CNS
[46] = tested on: LXFL 529 NSCLC
[47] = tested on: OVCAR-3 ovarian
[48] = tested on: MOLT-4 leukemia
[49] = tested on: LOX IMVI melanoma
[50] = tested on: HOP-62 NSCLC
[51] = tested on: SNB-19 CNS
[52] = tested on: DMS 114 small cell lung
[53] = tested on: SR leukemia
[54] = tested on: HCT-116 colon
[55] = tested on: HOP-92 NSCLC
[56] = tested on: NCI-H460 lung
[57] = tested on: KM20L2 colon
[58] = tested on: SK-MEL-5 melanoma

SMILES: C=CCCC12CCCC(=O)C1Sc1ccc3ccccc3c12 (centres undefined)
- TGI [1]: 34.2 µM
- TGI [2]: 93.5 µM
- TGI [3]: 26.2 µM
- TGI [4]: 26.4 µM
- TGI [5]: 44.6 µM
- TGI [6]: > 100 µM
- TGI [7]: > 100 µM
- TGI [8]: 64.2 µM
- TGI [9]: 31.1 µM
- TGI [10]: > 100 µM
- TGI [11]: 24.5 µM
- TGI [12]: > 100 µM
- TGI [13]: > 100 µM
- TGI [14]: 82.9 µM
- TGI [15]: 58.6 µM
- TGI [16]: 92.3 µM
- TGI [17]: 36.2 µM
- TGI [18]: 51.2 µM
- TGI [19]: 48.2 µM
- TGI [20]: 33.6 µM
- TGI [21]: 42.5 µM
- TGI [22]: 23.6 µM
- TGI [23]: 54.4 µM
- TGI [24]: 42.9 µM
- TGI [25]: > 100 µM
- TGI [26]: 71.5 µM
- TGI [27]: 32.8 µM
- TGI [28]: 67.2 µM
- TGI [29]: 61.2 µM
- TGI [30]: 26.1 µM
- TGI [31]: 55.7 µM
- TGI [32]: 28.5 µM
- TGI [33]: 29.1 µM
- TGI [34]: 34 µM
- TGI [35]: 51.2 µM
- TGI [36]: 66.4 µM
- TGI [37]: 40 µM
- TGI [38]: 60.8 µM
- TGI [39]: 53.8 µM
- TGI [40]: 35 µM
- TGI [41]: 55.7 µM
- TGI [42]: 31.2 µM
- TGI [43]: 37.5 µM
- TGI [44]: 52.7 µM
- TGI [45]: > 100 µM
- TGI [46]: 33.2 µM
- TGI [47]: 29 µM
- TGI [48]: 39.6 µM
- TGI [49]: 26.5 µM
- TGI [50]: 53.5 µM
- TGI [51]: 96 µM

SMILES: Cc1cc(Cl)ccc1N1C(=O)C(=O)C(c2nc3ccccc3s2)/C(=N\NC(=O)c2ccccc2O)C1=O (centres undefined)
- TGI [1]: > 100 µM
- TGI [2]: > 100 µM
- TGI [3]: > 100 µM
- TGI [4]: > 100 µM
- TGI [5]: > 100 µM
- TGI [6]: > 100 µM
- TGI [7]: > 100 µM
- TGI [8]: > 100 µM
- TGI [9]: > 100 µM
- TGI [10]: > 100 µM
- TGI [52]: > 100 µM
- TGI [53]: > 100 µM
- TGI [54]: > 100 µM
- TGI [11]: > 100 µM
- TGI [12]: > 100 µM
- TGI [13]: > 100 µM
- TGI [14]: > 100 µM
- TGI [15]: > 100 µM
- TGI [16]: > 100 µM
- TGI [17]: > 100 µM
- TGI [55]: > 100 µM
- TGI [18]: > 100 µM
- TGI [19]: > 100 µM
- TGI [20]: > 100 µM
- TGI [21]: > 100 µM
- TGI [22]: > 100 µM
- TGI [23]: > 100 µM
- TGI [24]: > 100 µM
- TGI [25]: > 100 µM
- TGI [26]: > 100 µM
- TGI [27]: > 100 µM
- TGI [28]: > 100 µM
- TGI [29]: > 100 µM
- TGI [30]: > 100 µM
- TGI [56]: > 100 µM
- TGI [31]: > 100 µM
- TGI [32]: > 100 µM
- TGI [33]: > 100 µM
- TGI [34]: > 100 µM
- TGI [35]: > 100 µM
- TGI [36]: > 100 µM
- TGI [37]: > 100 µM
- TGI [38]: > 100 µM
- TGI [39]: > 100 µM
- TGI [40]: > 100 µM
- TGI [41]: > 100 µM
- TGI [42]: > 100 µM
- TGI [43]: > 100 µM
- TGI [57]: > 100 µM
- TGI [44]: > 100 µM
- TGI [45]: > 100 µM
- TGI [46]: > 100 µM
- TGI [47]: > 100 µM
- TGI [48]: > 21 µM
- TGI [49]: > 100 µM
- TGI [50]: > 100 µM
- TGI [51]: > 100 µM
- TGI [58]: > 100 µM

Reference: PubChem BioAssay (NCI)
